Measured values: US9440956B2, “Indole, indazole and benzimidazole arylamides as P2X3 and P2X2/3 antagonists” (Roche Palo Alto LLC, priority 2010, dated 2016)

Experiments:
rat P2X3 receptor = molecular target: T1, rat P2X3 receptor (Rattus norvegicus, UniProt P49654); assay: P2X3 FLIPR (Fluorometric Imaging Plate Reader) assay; type: cell-based; settings: CHO-K1 cells transfected with cloned rat P2X3; agonist α,β-meATP 1 μM; Fluo-3 calcium fluorescence
T1 construct: expressed in transfected cells; host or cells: CHO-K1
T1 sequence (P49654 1-397): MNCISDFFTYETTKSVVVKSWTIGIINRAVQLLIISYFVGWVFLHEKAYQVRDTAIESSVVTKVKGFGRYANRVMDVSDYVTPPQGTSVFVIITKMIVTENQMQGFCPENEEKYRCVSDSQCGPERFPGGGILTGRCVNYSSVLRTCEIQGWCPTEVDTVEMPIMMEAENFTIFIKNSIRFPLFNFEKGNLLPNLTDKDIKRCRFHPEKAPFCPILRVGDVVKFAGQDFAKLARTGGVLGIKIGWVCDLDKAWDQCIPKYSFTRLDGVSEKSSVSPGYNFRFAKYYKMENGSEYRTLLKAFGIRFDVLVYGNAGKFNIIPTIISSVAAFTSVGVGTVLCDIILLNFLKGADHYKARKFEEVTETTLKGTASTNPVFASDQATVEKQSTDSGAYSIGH
Experimental: (§1) P2X3/P2X2/3 FLIPR (Fluorometric Imaging Plate Reader) Assay
(§2) CHO-K1 cells were transfected with cloned rat P2X3 or human P2X2/3 receptor subunits and passaged in flasks. 18-24 hours before the FLIPR experiment, cells were released from their flasks, centrifuged, and resuspended in nutrient medium at 2.5×10^5 cells/ml. The cells were aliquoted into black-walled 96-well plates at a density of 50,000 cells/well and incubated overnight in 5% CO2 at 37° C. On the day of the experiment, cells were washed in FLIPR buffer (calcium- and magnesium-free Hank's balanced salt solution, 10 mM HEPES, 2 mM CaCl2, 2.5 mM probenecid; FB). Each well received 100 μl FB and 100 μl of the fluorescent dye Fluo-3 AM [2 μM final conc.]. After a 1 hour dye loading incubation at 37° C., the cells were washed 4 times with FB, and a final 75 μl/well FB was left in each well.
(§3) Test compounds (dissolved in DMSO at 10 mM and serially diluted with FB) or vehicle were added to each well (25 μl of a 4× solution) and allowed to equilibrate for 20 minutes at room temperature. The plates were then placed in the FLIPR and a baseline fluorescence measurement (excitation at 488 nm and emission at 510-570 nm) was obtained for 10 seconds before a 100 μl/well agonist or vehicle addition. The agonist was a 2× solution of α,β-meATP producing a final concentration of 1 μM (P2X3) or 5 μM (P2X2/3). Fluorescence was measured for an additional 2 minutes at 1 second intervals after agonist addition. A final addition of ionomycin (5 μM, final concentration) was made to each well of the FLIPR test plate to establish cell viability and maximum fluorescence of dye-bound cytosolic calcium. Peak fluorescence in response to the addition of α,β-meATP (in the absence and presence of test compounds) was measured and inhibition curves generated using nonlinear regression. PPADS, a standard P2X antagonist, was used as a positive control.

human P2X2/3 receptor = molecular target: T2, human P2X2/3 receptor (Homo sapiens, UniProt P56373+Q9UBL9); assay: P2X2/3 FLIPR (Fluorometric Imaging Plate Reader) assay; type: cell-based; settings: CHO-K1 cells transfected with human P2X2/3; agonist α,β-meATP 5 μM; Fluo-3 calcium fluorescence
T2 construct: expressed in transfected cells; host or cells: CHO-K1
T2 sequence (Q9UBL9 1-471): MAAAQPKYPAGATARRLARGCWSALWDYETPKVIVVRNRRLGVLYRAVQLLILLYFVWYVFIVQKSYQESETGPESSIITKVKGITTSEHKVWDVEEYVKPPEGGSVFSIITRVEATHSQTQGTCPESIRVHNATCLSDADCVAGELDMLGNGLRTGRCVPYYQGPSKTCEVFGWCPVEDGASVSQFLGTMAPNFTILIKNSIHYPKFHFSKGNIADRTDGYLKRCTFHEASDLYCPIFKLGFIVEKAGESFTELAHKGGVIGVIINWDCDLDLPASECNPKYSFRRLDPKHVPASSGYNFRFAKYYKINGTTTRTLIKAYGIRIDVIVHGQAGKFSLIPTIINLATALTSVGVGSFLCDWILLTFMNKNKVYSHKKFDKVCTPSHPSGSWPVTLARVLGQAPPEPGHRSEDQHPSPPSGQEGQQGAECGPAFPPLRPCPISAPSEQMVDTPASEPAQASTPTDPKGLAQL
T2 sequence (P56373 1-397): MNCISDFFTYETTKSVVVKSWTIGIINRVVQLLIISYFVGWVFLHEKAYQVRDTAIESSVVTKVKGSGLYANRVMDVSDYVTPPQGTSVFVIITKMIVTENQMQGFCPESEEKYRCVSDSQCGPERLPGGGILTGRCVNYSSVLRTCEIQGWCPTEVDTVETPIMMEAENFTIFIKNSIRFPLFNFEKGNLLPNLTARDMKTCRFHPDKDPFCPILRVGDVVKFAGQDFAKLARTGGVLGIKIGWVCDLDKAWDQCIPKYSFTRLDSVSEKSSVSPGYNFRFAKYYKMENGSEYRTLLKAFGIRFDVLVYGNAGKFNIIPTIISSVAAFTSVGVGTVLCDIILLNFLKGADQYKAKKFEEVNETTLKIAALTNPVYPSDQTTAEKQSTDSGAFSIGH
Experimental: as §1, §2, §3

| pKi P2X3 (rat P2X3 receptor) | pKi P2X2/3 (human P2X2/3 receptor) | SMILES |
| --- | --- | --- |
| 8.01 | 7.26 | Cc1ccc(-c2cc(C(=O)NCc3cnc(C)cn3)cc3c2cnn3-c2ccccc2C)nc1 [Compound 18, 4-(5-Methyl-pyridin-2-yl)-1-o-tolyl-1H-indazole-6-carboxylic acid (5-methyl-pyrazin-2-ylmethyl)-amide] |
| 7.98 | 6 | Cc1ccc(-c2cc(C(=O)N[C@@H](C)CO)cc3c2cnn3-c2ccccc2C)nc1 [Compound 19, 4-(5-Methyl-1-pyridin-2-yl)-1-o-tolyl-1H-indazole-6-carboxylic acid ((S)-2-hydroxy-1-methyl-ethyl)-amide] |
| 7.55 | 6.19 | Cc1ccc(-c2cc(C(=O)N[C@@H](C)CO)cc3c2cnn3-c2ccccc2C(C)C)nc1 [Compound 20, 1-(2-Isopropyl-phenyl)-4-(5-methyl-pyridin-2-yl)-1H-indazole-6-carboxylic acid ((S)-2-hydroxy-1-methyl-ethyl)-amide] |
| 7.17 | 5.92 | Cc1ccc(-c2cc(C(=O)NCc3cnc(C)cn3)cc3c2ccn3CC(C)C)nc1 [Compound 21, 1-Isobutyl-4-(5-methyl-pyridin-2-yl)-1H-indole-6-carboxylic acid (5-methyl-pyrazin-2-ylmethyl)-amide] |
| 7.27 | 5.32 | Cc1ccc(-c2cc(C(=O)NCc3ccc(C)nn3)cc3c2ccn3C(C)C)nc1 [Compound 25, 1-Isopropyl-4-(5-methyl-pyridin-2-yl)-1H-indole-6-carboxylic acid (6-methyl-pyridazin-3-ylmethyl)-amide] |
